# From patent publication US20180055032A1, “ODORS FOR PSYLLID TRAPPING, REPELLING AND CONTROL” (The Regents of the University of California, priority 2011, published 2018)
# Assays:
# Type in all cases: cell-based, Diaphorina citri
# [1] = test system: neuron 4A (rhinarial plate on flagellomere 4); test: single-sensillum electrophysiology, odor response of neuron 4A; settings: for odor response (frequency of action potentials during stimulus minus baseline), 4A: Table 1, odor diluted to 1%, 50 μL in cartridge; as to response to ultra-prolonged activators, 4A: key: 0, no response; +, >50 spikes/second; ++, >100 spikes/second; +++, >150 spikes/second
# [2] = test system: neuron 4B (rhinarial plate on flagellomere 4); settings: for odor response (frequency of action potentials during stimulus minus baseline), 4B: Table 1, odor diluted to 1%, 50 μL in cartridge
# [3] = test system: neuron 7C (rhinarial plate on flagellomere 7); test: single-sensillum electrophysiology, odor response of neuron 7C; settings: for odor response (frequency of action potentials during stimulus minus baseline), 7C: Table 1, odor diluted to 1%, 50 μL in cartridge
# [4] = test system: neuron 2A (rhinarial plate on flagellomere 2); test: single-sensillum electrophysiology, odor response of neuron 2A; settings: for odor response (frequency of action potentials during stimulus minus baseline), 2A: Table 1, odor diluted to 1%, 50 μL in cartridge; as to all read-outs here: key: 0, no response; +, >50 spikes/second; ++, >100 spikes/second; +++, >150 spikes/second
# [5] = test system: neuron 2B (rhinarial plate on flagellomere 2); test: single-sensillum electrophysiology, odor response of neuron 2B; settings: for odor response (frequency of action potentials during stimulus minus baseline), 2B: Table 1, odor diluted to 1%, 50 μL in cartridge; as to response to ultra-prolonged activators, 2B: key: 0, no response; +, >50 spikes/second; ++, >100 spikes/second; +++, >150 spikes/second
# [6] = test system: neuron 7B (rhinarial plate on flagellomere 7); settings: for odor response (frequency of action potentials during stimulus minus baseline), 7B: Table 1, odor diluted to 1%, 50 μL in cartridge
# [7] = test system: neuron 7A (rhinarial plate on flagellomere 7); test: single-sensillum electrophysiology, odor response of neuron 7A; settings: for odor response (frequency of action potentials during stimulus minus baseline), 7A: Table 1, odor diluted to 1%, 50 μL in cartridge; as to all read-outs here: key: 0, no response; +, >50 spikes/second; ++, >100 spikes/second; +++, >150 spikes/second
# [8] = test system: neuron 6B (rhinarial plate on flagellomere 6); test: single-sensillum electrophysiology, odor response of neuron 6B; settings: for odor response (frequency of action potentials during stimulus minus baseline), 6B: Table 1, odor diluted to 1%, 50 μL in cartridge
# [9] = test system: neuron 6C (rhinarial plate on flagellomere 6); test: single-sensillum electrophysiology, odor response of neuron 6C; settings: for odor response (frequency of action potentials during stimulus minus baseline), 6C: Table 1, odor diluted to 1%, 50 μL in cartridge
# [10] = test system: neuron 2C (rhinarial plate on flagellomere 2); test: single-sensillum electrophysiology, odor response of neuron 2C; settings: for odor response (frequency of action potentials during stimulus minus baseline), 2C: Table 1, odor diluted to 1%, 50 μL in cartridge
# [11] = test system: neuron 4C (rhinarial plate on flagellomere 4); test: single-sensillum electrophysiology, odor response of neuron 4C; settings: for odor response (frequency of action potentials during stimulus minus baseline), 4C: Table 1, odor diluted to 1%, 50 μL in cartridge
# [12] = test system: neuron 6A (rhinarial plate on flagellomere 6); test: single-sensillum electrophysiology, odor response of neuron 6A; settings: for odor response (frequency of action potentials during stimulus minus baseline), 6A: Table 1, odor diluted to 1%, 50 μL in cartridge
# [13] = Table 3, 10^−2 in paraffin oil, 50 μL, odor puff of 0.5 sec
Structure (SMILES),"odor response (frequency of action potentials during stimulus minus baseline), 4A [1]","odor response (frequency of action potentials during stimulus minus baseline), 4B [2]","odor response (frequency of action potentials during stimulus minus baseline), 7C [3]","odor response (frequency of action potentials during stimulus minus baseline), 2A [4]","odor response (frequency of action potentials during stimulus minus baseline), 2B [5]","odor response (frequency of action potentials during stimulus minus baseline), 7B [6]","odor response (frequency of action potentials during stimulus minus baseline), 7A [7]","odor response (frequency of action potentials during stimulus minus baseline), 6B [8]","odor response (frequency of action potentials during stimulus minus baseline), 6C [9]","odor response (frequency of action potentials during stimulus minus baseline), 2C [10]","odor response (frequency of action potentials during stimulus minus baseline), 4C [11]","odor response (frequency of action potentials during stimulus minus baseline), 6A [12]",further results
CCCC(=O)OCC [ethyl butyrate],0,"+++ (+++, >150 spikes/second)","++ (++, >100 spikes/second)",0,0,0,0,"++ (++, >100 spikes/second)",0,"+ (+, >50 spikes/second)",0,0,
CC(=O)OCC(C)C [isobutyl acetate],0,"++ (++, >100 spikes/second)",0,0,0,0,0,"++ (++, >100 spikes/second)",0,0,0,0,
CCCC(=O)OC [methyl butyrate],0,"++ (++, >100 spikes/second)","+ (+, >50 spikes/second)",0,0,0,0,"+ (+, >50 spikes/second)",0,0,0,0,
C=CC(=C)CCC=C(C)C [myrcene],0,"+ (+, >50 spikes/second)",0,0,0,0,0,"+ (+, >50 spikes/second)",0,"++ (++, >100 spikes/second)",0,0,
CCCCCCCCC=O [nonanal],0,"++ (++, >100 spikes/second)","++ (++, >100 spikes/second)",0,0,0,0,"++ (++, >100 spikes/second)",0,0,0,0,"response to ultra-prolonged activators, 4A [1, 13]: 0; response to ultra-prolonged activators, 4B [2, 13]: ++ (++, >100 spikes/second); response to ultra-prolonged activators, 7C [3, 13]: ++ (++, >100 spikes/second); response to ultra-prolonged activators, 2A [4, 13]: 0; response to ultra-prolonged activators, 2B [5, 13]: 0; response to ultra-prolonged activators, 7B [6, 13]: 0; response to ultra-prolonged activators, 7A [7, 13]: 0; response to ultra-prolonged activators, 6B [8, 13]: ++ (++, >100 spikes/second); response to ultra-prolonged activators, 6C [9, 13]: 0; response to ultra-prolonged activators, 2C [10, 13]: 0; response to ultra-prolonged activators, 4C [11, 13]: 0; response to ultra-prolonged activators, 6A [12, 13]: 0"
CCCCCCCC=O [octanal],"+ (+, >50 spikes/second)",0,0,0,"+ (+, >50 spikes/second)","++ (++, >100 spikes/second)",0,0,"+ (+, >50 spikes/second)",0,"+ (+, >50 spikes/second)","+ (+, >50 spikes/second)",
Cc1ccc(C(C)C)cc1 [p-cymene],0,"+++ (+++, >150 spikes/second)",0,0,0,0,0,"++ (++, >100 spikes/second)",0,0,0,0,
CCCCCOC(C)=O [pentyl acetate],0,"+ (+, >50 spikes/second)",0,0,0,0,0,"++ (++, >100 spikes/second)",0,"++ (++, >100 spikes/second)",0,0,
